Where two headings read alike, the source gives them in different places.
Legend:
[1] = cited from earlier work
[2] = 1H NMR-pH titration, protonation constants; type: physicochemical
Method: The pH meter readings were recorded using a Metrohm pH meter, equipped with a Metrohm 6.0234.110 combined glass electrode. A four-point calibration using pH 2.00, pH 4.00, pH 7.00 and pH 11.00 standard buffer solutions were performed directly before pH adjustments. The pH measurements were performed in 25 mL vessels with proper stirring before transferring 600 μL sample solutions into the NMR tubes. Solutions were prepared in the pH range of 1.50–8.70 with 0.30 increments using 0.9 M, 0.5 M and 0.1 M sodium hydroxide and hydrochloric acid solutions in H2O:D2O = 9:1.
For structural characterizations of CD derivatives in D2O, a 600 MHz Varian DDR NMR spectrometer equipped with a 5 mm inverse-detection gradient probe or a 400 MHz Varian Mercury Plus spectrometer equipped with a 5mm Varian 400 Automation Triple Resonance Broadband Pulsed Field Gradient probe was used. For NMR-pH titrations, the same instruments were used. The pH-dependent series of ^1H NMR spectra were recorded in a solvent mixture of H2O:D2O = 9:1 by volume, where the constant ionic strength and the buffer capacity were adjusted using 0.05 M sodium chloride and 0.05 M acetic acid-d4. An appropriate amount of CD was weighed to obtain a 1 mM solution and finally one drop of methanol was added as a chemical shift reference (3.310 ppm). The water resonance was diminished by the dpfgse pulse sequence or presaturation. All the spectra were processed using the MestReNova v9.0.1-13254 (Mestralab Research, S.L., Santiago de Compostela, Spain) software.
The standard macroscopic evaluation of NMR-pH titration curves (Equation (3) in Section 2.2) was performed with the following software tools: Microcal Origin Pro 8 (OriginLab Corp., Northampton, MA, USA), HypNMR2018 [38], OPIUM [39] and home-written R scripts (R version 4.1.2, The R Foundation, Vienna, Austria) using the nls module. The equidistant macroscopic (Equation (8)) and Q-fitting (Equations (4) and (11)) models were fitted both by Origin and our R-scripts to verify their equivalent performance regarding statistical description of the parameter estimates. The microscopic cluster expansion model in Section 2.5 requires summation of >100 variables which is unfeasible in the form of an explicit model function required by commercial data-fitting software like Origin. The enumeration of microspecies was therefore accomplished in a custom-written R script. To assess the robustness of our data-fitting model as well as the error propagation of the optimized log k and pε parameters to the derived log K macroconstants, Monte Carlo simulations on >1000 replicates were performed in R.

[3] = design: method as in doi:10.1021/jp0340820; details: cited from earlier work
[4] = Literature, ref Hawkins, Perrin, Inorg. Chem. 2 (1963) 843
[5] = ED macro, Eq. (7) evaluation, calculated (*)
[6] = Macroscopic, Eq. (2) evaluation
[7] = Macroscopic, Eq. (2) evaluation, calculated (*)
[8] = Microscopic, Eq. (3) evaluation, calculated (*)

log K1 ([2]; ED macro, Eq. (7) evaluation) | log K2 ([2]; ED macro, Eq. (7) evaluation) | log kA [2, 5] | pεAB [2, 5] | log K1 [2, 6] | log K2 [2, 6] | log kA [2, 7] | pεAB [2, 7] | log K1 [2, 8] | log K2 [2, 8] | Molecule | log K1 [1, 4] | log K2 [1, 4] | log kA [1, 4] | pεAB [1, 4] | pε ([1]; earlier literature, almost independent carboxylate protonations) | log kA ([1]; literature value) | pε (carboxylate interactions) [3]
4.631 (0.005) | 3.883 (0.005) | 4.330 (0.005) | 0.15 (0.01) | 4.62 (0.06) | 3.87 (0.07) | 4.32 (0.06) | 0.15 (0.01) | 4.630 (0.005) | 3.88 (0.01) | O=C(O)CCSSCCC(=O)O [DTDPA, 3,3′-dithiodipropionic acid, reference compound] | 4.47 | 3.88 | 4.16 | -0.01 | ≈ 0 | 4.16 | 
 |  |  |  |  |  |  |  |  |  | oxidized glutathione |  |  |  |  |  |  | ≈ 0.1

Source: PMC9696085, “Fully Symmetric Cyclodextrin Polycarboxylates: How to Determine Reliable Protonation Constants from NMR Titration Data” (International Journal of Molecular Sciences, 2022)
